Calls of active or inactive are those of the source.
Legend:
Streptococcus pneumoniae = experiment: Antibacterial activity against Streptococcus pneumoniae at 64 ug/ml after 20 hrs; assay type: functional, organism-based
Enterococcus faecalis = experiment: Antibacterial activity against Enterococcus faecalis at 64 ug/ml after 20 hrs; assay type: functional, organism-based
Escherichia coli = experiment: Antibacterial activity against Escherichia coli at 64 ug/ml after 20 hrs; assay type: functional, organism-based
[1] = biological target: T1, 3-oxoacyl-[acyl-carrier-protein] synthase 2 (Staphylococcus aureus) (UniProt Q5TKS0); experiment: Inhibition of Staphylococcus aureus […] assessed as [2-14C]-malonyl CoA incorporation after 90 mins by cell free-based scintillation counting
T1 sequence (whole entry): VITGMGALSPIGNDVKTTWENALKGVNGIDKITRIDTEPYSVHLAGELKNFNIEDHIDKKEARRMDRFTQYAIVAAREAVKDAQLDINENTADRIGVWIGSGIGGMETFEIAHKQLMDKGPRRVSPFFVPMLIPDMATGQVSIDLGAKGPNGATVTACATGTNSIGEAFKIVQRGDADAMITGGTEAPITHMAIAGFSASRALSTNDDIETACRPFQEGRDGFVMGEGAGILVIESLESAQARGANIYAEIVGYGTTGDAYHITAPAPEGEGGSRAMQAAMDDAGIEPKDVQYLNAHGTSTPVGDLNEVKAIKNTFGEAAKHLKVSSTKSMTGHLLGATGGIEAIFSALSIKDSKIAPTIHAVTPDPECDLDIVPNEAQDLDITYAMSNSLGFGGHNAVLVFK

Enterococcus faecium = experiment: Antibacterial activity against Enterococcus faecium at 64 ug/ml after 20 hrs; assay type: functional, organism-based
Haemophilus influenzae = experiment: Antibacterial activity against Haemophilus influenzae at 64 ug/ml after 20 hrs; assay type: functional, organism-based
Staphylococcus aureus = experiment: Antibacterial activity against Staphylococcus aureus at 64 ug/ml after 20 hrs; assay type: functional, organism-based

COC(=O)c1ccc(O)c(NC(=O)CC[C@]2(C)C(=O)C=CC34CC(CCC32)C(O)(CO)C4)c1O (some centres not stated)
inactive: Activity (Streptococcus pneumoniae) | Activity (Enterococcus faecalis) | Activity (Escherichia coli) | inhibition [1] | Activity (Enterococcus faecium) | Activity (Haemophilus influenzae) | Activity (Staphylococcus aureus)

C=C1CC23C=CC(=O)[C@@](C)(CCC(=O)Nc4c(O)ccc(C(=O)O)c4O)C2CC1C[C@H]3O (some centres not stated)
inactive: Activity (Streptococcus pneumoniae) | Activity (Enterococcus faecalis) | Activity (Escherichia coli) | inhibition [1] | Activity (Enterococcus faecium) | Activity (Haemophilus influenzae) | Activity (Staphylococcus aureus)

COC(=O)c1ccc(O)c(NC(=O)CC[C@]2(C)C(=O)C=C[C@]34CC5C[C@H](O[C@]5(C)C3O)C42)c1O (some centres not stated)
inactive: Activity (Streptococcus pneumoniae) | Activity (Enterococcus faecalis) | Activity (Escherichia coli) | inhibition [1] | Activity (Enterococcus faecium) | Activity (Haemophilus influenzae) | Activity (Staphylococcus aureus)

C=C1C[C@@]23C=CC(=O)[C@@](C)(CCC(=O)Nc4c(O)ccc(C(=O)O)c4O)[C@@H]2C[C@@H]1CC3
inactive: Activity (Streptococcus pneumoniae) | Activity (Enterococcus faecalis) | Activity (Escherichia coli) | Activity (Enterococcus faecium) | Activity (Haemophilus influenzae) | Activity (Staphylococcus aureus)

C=C1CC23C=CC(=O)[C@@](C)(CCC(=O)Nc4c(O)ccc(C(=O)OC)c4O)C2CC1C[C@H]3O (some centres not stated)
inactive: Activity (Streptococcus pneumoniae) | Activity (Enterococcus faecalis) | Activity (Escherichia coli) | inhibition [1] | Activity (Enterococcus faecium) | Activity (Haemophilus influenzae) | Activity (Staphylococcus aureus)

C[C@@]1(CCC(=O)Nc2c(O)ccc(C(=O)O)c2O)C(=O)C=CC23CC4CC(OC4(CO)C2)C31 (some centres not stated)
inactive: Activity (Streptococcus pneumoniae) | Activity (Enterococcus faecalis) | Activity (Escherichia coli) | inhibition [1] | Activity (Enterococcus faecium) | Activity (Haemophilus influenzae) | Activity (Staphylococcus aureus)

COC(=O)c1ccc(O)c(NC(=O)CC[C@]2(C)C(=O)C=CC34CCC(CC32)[C@@](O)(CO)C4)c1O (some centres not stated)
inactive: Activity (Streptococcus pneumoniae) | Activity (Enterococcus faecalis) | Activity (Escherichia coli) | inhibition [1] | Activity (Enterococcus faecium) | Activity (Haemophilus influenzae) | Activity (Staphylococcus aureus)

C=C1C2CCC3(C=CC(=O)[C@@](C)(CCC(=O)Nc4c(O)ccc(C(=O)OC)c4O)C3C2)[C@H]1O (some centres not stated)
inactive: Activity (Streptococcus pneumoniae) | Activity (Enterococcus faecalis) | Activity (Escherichia coli) | inhibition [1] | Activity (Enterococcus faecium) | Activity (Haemophilus influenzae) | Activity (Staphylococcus aureus)

C[C@@]1(CCC(=O)Nc2c(O)ccc(C(=O)O)c2O)C(=O)C=CC23CCC(CC21)[C@@](O)(CO)C3 (some centres not stated)
inactive: Activity (Streptococcus pneumoniae) | Activity (Enterococcus faecalis) | Activity (Escherichia coli) | inhibition [1] | Activity (Enterococcus faecium) | Activity (Haemophilus influenzae) | Activity (Staphylococcus aureus)

C=C1CC23C=CC(=O)[C@@](C)(CCC(=O)Nc4c(O)ccc(C(=O)O)c4O)C2CC1[C@@H](O)C3 (some centres not stated)
inactive: Activity (Streptococcus pneumoniae) | Activity (Enterococcus faecalis) | Activity (Escherichia coli) | inhibition [1] | Activity (Enterococcus faecium) | Activity (Haemophilus influenzae) | Activity (Staphylococcus aureus)

C[C@@]12C[C@@]34C=CC(=O)[C@@](C)(CCC(=O)Nc5c(O)ccc(C(N)=O)c5O)C3[C@H](CC1C4)O2 (some centres not stated)
inactive: Activity (Streptococcus pneumoniae) | Activity (Enterococcus faecalis) | Activity (Escherichia coli) | inhibition [1] | Activity (Enterococcus faecium) | Activity (Haemophilus influenzae) | Activity (Staphylococcus aureus)

C=C1CC23C=CC(=O)[C@@](C)(CCC(=O)OCC(O)CO)C2CC1CC3 (some centres not stated)
inactive: Activity (Streptococcus pneumoniae) | Activity (Enterococcus faecalis) | Activity (Escherichia coli) | inhibition [1] | Activity (Enterococcus faecium) | Activity (Haemophilus influenzae) | Activity (Staphylococcus aureus)

COC(=O)CC[C@]1(C)C(=O)C=C[C@]23CC4C[C@H](O[C@]4(C)[C@@H]2O)C13 (some centres not stated)
inactive: Activity (Streptococcus pneumoniae) | Activity (Enterococcus faecalis) | Activity (Escherichia coli) | inhibition [1] | Activity (Enterococcus faecium) | Activity (Haemophilus influenzae) | Activity (Staphylococcus aureus)

COCC(O)COc1ccc(C(C)(C)c2ccc(OCC(O)CO)cc2)cc1 (configuration not stated)
inactive: Activity (Streptococcus pneumoniae) | Activity (Enterococcus faecalis) | Activity (Escherichia coli) | inhibition [1] | Activity (Enterococcus faecium) | Activity (Haemophilus influenzae) | Activity (Staphylococcus aureus)

CC12CC34C=CC(=O)[C@@](C)(CCC(=O)Nc5c(O)ccc(C(=O)O)c5O)C3C(C[C@]1(O)C4)O2 (some centres not stated)
inactive: Activity (Streptococcus pneumoniae) | Activity (Enterococcus faecalis) | Activity (Escherichia coli) | inhibition [1] | Activity (Enterococcus faecium) | Activity (Haemophilus influenzae) | Activity (Staphylococcus aureus)

C=C1CC23C=CC(=O)[C@@](C)(CCC(=O)OC)C2CC1[C@@H](O)C3 (some centres not stated)
inactive: Activity (Streptococcus pneumoniae) | Activity (Enterococcus faecalis) | Activity (Escherichia coli) | inhibition [1] | Activity (Enterococcus faecium) | Activity (Haemophilus influenzae) | Activity (Staphylococcus aureus)

COC(=O)c1ccc(O)c(NC(=O)CC[C@]2(C)C(=O)C[C@@H](O)[C@]34CC5C[C@H](O[C@]5(C)C3)C42)c1O (some centres not stated)
inactive: Activity (Streptococcus pneumoniae) | Activity (Enterococcus faecalis) | Activity (Escherichia coli) | inhibition [1] | Activity (Enterococcus faecium) | Activity (Haemophilus influenzae) | Activity (Staphylococcus aureus)

COC(=O)c1ccc(O)c(NC(=O)CC[C@]2(C)C(=O)C=C[C@]34CC5C[C@H](O[C@]5(C)C3)C42)c1O (some centres not stated)
inactive: Activity (Streptococcus pneumoniae) | Activity (Enterococcus faecalis) | Activity (Escherichia coli) | inhibition [1] | Activity (Enterococcus faecium) | Activity (Haemophilus influenzae) | Activity (Staphylococcus aureus)

C/C(=C\CC[C@]1(C)C(=O)C=C[C@]23CC4C[C@H](O[C@]4(C)C2)C31)C(=O)N[C@@H](CCC(N)=O)C(=O)O (some centres not stated)
inactive: Activity (Streptococcus pneumoniae) | Activity (Enterococcus faecalis) | Activity (Escherichia coli) | inhibition [1] | Activity (Enterococcus faecium) | Activity (Haemophilus influenzae) | Activity (Staphylococcus aureus)

C[C@]12O[C@H]3CC1C[C@@]1(C=CC(=O)[C@@](C)(CCC(=O)O)C31)[C@H]2O (some centres not stated)
inactive: Activity (Streptococcus pneumoniae) | Activity (Enterococcus faecalis) | Activity (Escherichia coli) | inhibition [1] | Activity (Enterococcus faecium) | Activity (Haemophilus influenzae) | Activity (Staphylococcus aureus)

CC12C[C@@]34C=CC(=O)[C@@](C)(CCC(=O)Nc5c(O)ccc(C(=O)O)c5O)C3[C@H](CC1C4)O2 (some centres not stated)
inactive: Activity (Streptococcus pneumoniae) | Activity (Enterococcus faecalis) | Activity (Escherichia coli) | Activity (Enterococcus faecium) | Activity (Haemophilus influenzae) | Activity (Staphylococcus aureus)

C[C@@]12C[C@@]34C=CC(=O)[C@@](C)(CCC(=O)Nc5c(O)ccc6c(=O)[nH]c(=O)oc56)C3[C@H](CC1C4)O2 (some centres not stated)
inactive: Activity (Streptococcus pneumoniae) | Activity (Enterococcus faecalis) | Activity (Escherichia coli) | inhibition [1] | Activity (Enterococcus faecium) | Activity (Haemophilus influenzae) | Activity (Staphylococcus aureus)

C=C1C2CCC3(C=CC(=O)[C@@](C)(CCC(=O)Nc4c(O)ccc(C(=O)O)c4O)C3C2)[C@H]1O (some centres not stated)
inactive: Activity (Streptococcus pneumoniae) | Activity (Enterococcus faecalis) | Activity (Escherichia coli) | inhibition [1] | Activity (Enterococcus faecium) | Activity (Haemophilus influenzae) | Activity (Staphylococcus aureus)

COC(=O)[C@H](CCC(N)=O)NC(=O)/C(C)=C/CC[C@]1(C)C(=O)C=C[C@]23CC4C[C@H](O[C@]4(C)C2)C31 (some centres not stated)
inactive: Activity (Streptococcus pneumoniae) | Activity (Enterococcus faecalis) | Activity (Escherichia coli) | inhibition [1] | Activity (Enterococcus faecium) | Activity (Haemophilus influenzae) | Activity (Staphylococcus aureus)

C[C@@]1(O)CC23C=CC(=O)[C@@](C)(CCC(=O)Nc4c(O)ccc(C(=O)O)c4O)C2CC1CC3 (some centres not stated)
inactive: Activity (Streptococcus pneumoniae) | Activity (Enterococcus faecalis) | Activity (Escherichia coli) | inhibition [1] | Activity (Enterococcus faecium) | Activity (Haemophilus influenzae) | Activity (Staphylococcus aureus)

C[C@@]12C[C@@]34C=CC(=O)[C@@](C)(CCC(=O)Nc5c(O)cccc5O)C3[C@H](CC1C4)O2 (some centres not stated)
inactive: Activity (Streptococcus pneumoniae) | Activity (Enterococcus faecalis) | Activity (Escherichia coli) | inhibition [1] | Activity (Enterococcus faecium) | Activity (Haemophilus influenzae) | Activity (Staphylococcus aureus)

C[C@@]12CC34C=CC(=O)[C@@](C)(CCC(=O)Nc5c(O)ccc(C(=O)O)c5O)C3[C@H](CC1[C@H]4O)O2 (some centres not stated)
inactive: Activity (Streptococcus pneumoniae) | Activity (Enterococcus faecalis) | Activity (Escherichia coli) | inhibition [1] | Activity (Enterococcus faecium) | Activity (Haemophilus influenzae) | Activity (Staphylococcus aureus)
